In publication PMC3401268 (Bioorganic & medicinal chemistry, 2012):

Key:
α-synuclein fibrils [1] = target: T1, α-synuclein fibrils (Homo sapiens, UniProt P37840)
α-synuclein fibrils [2] = target: T1, α-synuclein fibrils; experiment: ThT saturation binding to α-synuclein fibrils; conditions: Tris buffer 30 mM pH 7.4

CCc1cc(Cl)c(OC)c(C(=O)NC[C@@H]2CCCN2CC)c1O.Cl [eticlopride hydrochloride]
Competition for ThT in the assay (specificity control) (α-synuclein fibrils [1]): no significant competition

Cc1ccc2c(c1)sc(-c1ccc(N(C)C)cc1)[n+]2C [ThT, Thioflavin T]
Bmax of ThT binding to α-synuclein fibrils (α-synuclein fibrils [2]): 5672 afu
